Tested on: 292921-168-R-J2-PDC KRAS tumor spheroid viability
Experiment: Anticancer human tumor 292921-168-R-J2-PDC patient-derived pancreatic carcinoma cell line growth inhibition [KRAS2]
Conditions: spheroids with HUVEC and MSC; for IC50: curve of first compound; for viability, T/C: stronger effect = lower value; active = viability on the fitted dose curve at most 10% of control; inactive = the rest
Procedure, shortened: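 Combination screen of spheroid viability in tumor-cell co-cultures with endothelial (HUVEC) and mesenchymal stem cell stroma. Each agent was tested in half-log dilutions, topping at clinical Cmax or at 10 microM without a known Cmax.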

[1] = second compound 0.1 µM, first compound 0.000316 µM
[2] = second compound 0.1 µM, first compound 0.001 µM
[3] = second compound 0.1 µM, first compound 0.00316 µM
[4] = second compound 0.1 µM, first compound 0.01 µM
[5] = second compound 0.1 µM, first compound 0.0316 µM
[6] = second compound 0.316 µM, first compound 0.000316 µM
[7] = second compound 0.316 µM, first compound 0.001 µM
[8] = second compound 0.316 µM, first compound 0.00316 µM
[9] = second compound 0.316 µM, first compound 0.01 µM
[10] = second compound 0.316 µM, first compound 0.0316 µM
[11] = second compound 1 µM, first compound 0.000316 µM
[12] = second compound 1 µM, first compound 0.001 µM
[13] = second compound 1 µM, first compound 0.00316 µM
[14] = second compound 1 µM, first compound 0.01 µM
[15] = second compound 1 µM, first compound 0.0316 µM
[16] = second compound 3.16 µM, first compound 0.000316 µM
[17] = second compound 3.16 µM, first compound 0.001 µM
[18] = second compound 3.16 µM, first compound 0.00316 µM
[19] = second compound 3.16 µM, first compound 0.01 µM
[20] = second compound 3.16 µM, first compound 0.0316 µM
[21] = second compound 10 µM, first compound 0.000316 µM
[22] = second compound 10 µM, first compound 0.001 µM
[23] = second compound 10 µM, first compound 0.00316 µM
[24] = second compound 10 µM, first compound 0.01 µM
[25] = second compound 10 µM, first compound 0.0316 µM
[26] = second compound 0.1 µM, first compound 0.1 µM
[27] = second compound 0.316 µM, first compound 0.1 µM
[28] = second compound 1 µM, first compound 0.1 µM
[29] = second compound 3.16 µM, first compound 0.1 µM
[30] = second compound 10 µM, first compound 0.1 µM
[31] = second compound 0.1 µM, first compound 0.316 µM
[32] = second compound 0.1 µM, first compound 1 µM
[33] = second compound 0.1 µM, first compound 3.16 µM
[34] = second compound 0.1 µM, first compound 10 µM
[35] = second compound 0.316 µM, first compound 0.316 µM
[36] = second compound 0.316 µM, first compound 1 µM
[37] = second compound 0.316 µM, first compound 3.16 µM
[38] = second compound 0.316 µM, first compound 10 µM
[39] = second compound 1 µM, first compound 0.316 µM
[40] = second compound 1 µM, first compound 1 µM
[41] = second compound 1 µM, first compound 3.16 µM
[42] = second compound 1 µM, first compound 10 µM
[43] = second compound 3.16 µM, first compound 0.316 µM
[44] = second compound 3.16 µM, first compound 1 µM
[45] = second compound 3.16 µM, first compound 3.16 µM
[46] = second compound 3.16 µM, first compound 10 µM
[47] = second compound 10 µM, first compound 0.316 µM
[48] = second compound 10 µM, first compound 1 µM
[49] = second compound 10 µM, first compound 3.16 µM
[50] = second compound 10 µM, first compound 10 µM
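Note: drug exposure lasted seven days after spheroids formed for three days.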
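Throughout, for viability, T/C: percent of DMSO vehicle control viability which is 100%.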

CC(=O)Nc1cccc(-n2c(=O)n(C3CC3)c(=O)c3c(Nc4ccc(I)cc4F)n(C)c(=O)c(C)c32)c1 + CNCc1ccccc1-c1csc(C(C)Nc2nc(C)nc3cc(OC)c(OC)cc23)c1
< 0.1 nM: IC50 (second compound 3.16 µM) | IC50 (second compound 10 µM)
0.178 nM: IC50 (second compound 0.316 µM)
0.207 nM: IC50 (second compound 0.1 µM)
0.124 nM: IC50 (second compound 1 µM)
active: viability, T/C [5] 8.12% | viability, T/C [15] 8.11% | viability, T/C (second compound 3.16 µM, first compound 0.0001 µM) 0.21% | viability, T/C [16] 0.07% | viability, T/C [17] 0.05% | viability, T/C [18] 0.04% | viability, T/C [19] 0.04% | viability, T/C [20] 0.15% | viability, T/C (second compound 10 µM, first compound 0.0001 µM) 0.11% | viability, T/C [21] 0.11% | viability, T/C [22] 0.11% | viability, T/C [23] 0.12% | viability, T/C [24] 0.12% | viability, T/C [25] 0.2%
inactive: viability, T/C (second compound 0.1 µM, first compound 0.0001 µM) 66% | viability, T/C [1] 41.9% | viability, T/C [2] 20.2% | viability, T/C [3] 17.5% | viability, T/C [4] 12% | viability, T/C (second compound 0.316 µM, first compound 0.0001 µM) 64.5% | viability, T/C [6] 35.3% | viability, T/C [7] 21.8% | viability, T/C [8] 16.3% | viability, T/C [9] 12.3% | viability, T/C [10] 8.64% | viability, T/C (second compound 1 µM, first compound 0.0001 µM) 55% | viability, T/C [11] 28.2% | viability, T/C [12] 17.9% | viability, T/C [13] 13.7% | viability, T/C [14] 10.4%

CC(C)n1nc(-c2ccc3oc(N)nc3c2)c2c(N)ncnc21 + CNCc1ccccc1-c1csc(C(C)Nc2nc(C)nc3cc(OC)c(OC)cc23)c1
3.06 nM: IC50 (second compound 0.1 µM)
active: viability, T/C [16] 1.37% | viability, T/C [17] 0.62% | viability, T/C [18] 0.91% | viability, T/C [19] 0.17% | viability, T/C [20] 0.67% | viability, T/C [29] 0.43% | viability, T/C [21] 0.08% | viability, T/C [22] 0.56% | viability, T/C [23] 0.08% | viability, T/C [24] 0.09% | viability, T/C [25] 0.85% | viability, T/C [30] 0.31%
2.08 nM: IC50 (second compound 0.316 µM)
0.991 nM: IC50 (second compound 1 µM)
inactive: viability, T/C [1] 76.3% | viability, T/C [2] 63.9% | viability, T/C [3] 50.2% | viability, T/C [4] 36.2% | viability, T/C [5] 25.3% | viability, T/C [26] 23.7% | viability, T/C [6] 79% | viability, T/C [7] 60.7% | viability, T/C [8] 43.3% | viability, T/C [9] 33.5% | viability, T/C [10] 24.5% | viability, T/C [27] 21.5% | viability, T/C [11] 74.4% | viability, T/C [12] 50% | viability, T/C [13] 33.6% | viability, T/C [14] 25.7% | viability, T/C [15] 22.7% | viability, T/C [28] 19%
< 0.316 nM: IC50 (second compound 3.16 µM) | IC50 (second compound 10 µM)

CC1(C)CCC(CN2CCN(c3ccc(C(=O)NS(=O)(=O)c4ccc(NCC5CCOCC5)c([N+](=O)[O-])c4)c(Oc4cnc5[nH]ccc5c4)c3)CC2)=C(c2ccc(Cl)cc2)C1 + CNCc1ccccc1-c1csc(C(C)Nc2nc(C)nc3cc(OC)c(OC)cc23)c1
2130 nM: IC50 (second compound 0.316 µM)
inactive: viability, T/C [5] 94.3% | viability, T/C [26] 93.4% | viability, T/C [31] 102% | viability, T/C [32] 88.4% | viability, T/C [33] 22% | viability, T/C [10] 87.7% | viability, T/C [27] 86.9% | viability, T/C [35] 94.4% | viability, T/C [36] 86.6% | viability, T/C [37] 30.8% | viability, T/C [15] 60.5% | viability, T/C [28] 62.5% | viability, T/C [39] 68.2% | viability, T/C [40] 66.6% | viability, T/C [41] 13%
active: viability, T/C [34] 8.05% | viability, T/C [38] 6.47% | viability, T/C [42] 5.94% | viability, T/C [20] 0.12% | viability, T/C [29] 1.9% | viability, T/C [43] 0.25% | viability, T/C [44] 0.79% | viability, T/C [45] 0.4% | viability, T/C [46] 0.64% | viability, T/C [25] 0.08% | viability, T/C [30] 0.08% | viability, T/C [47] 0.23% | viability, T/C [48] 0.08% | viability, T/C [49] 0.09% | viability, T/C [50] 0.28%
< 31.6 nM: IC50 (second compound 3.16 µM) | IC50 (second compound 10 µM)
1380 nM: IC50 (second compound 1 µM)
1950 nM: IC50 (second compound 0.1 µM)

COc1cc(Nc2ncc3c(n2)-c2ccc(Cl)cc2C(c2c(F)cccc2OC)=NC3)ccc1C(=O)O + CNCc1ccccc1-c1csc(C(C)Nc2nc(C)nc3cc(OC)c(OC)cc23)c1
active: viability, T/C [20] 0.07% | viability, T/C [29] 0.05% | viability, T/C [43] 0.04% | viability, T/C [44] 0.05% | viability, T/C [45] 0.08% | viability, T/C [46] 0.19% | viability, T/C [25] 0.11% | viability, T/C [30] 0.1% | viability, T/C [47] 0.13% | viability, T/C [48] 0.1% | viability, T/C [49] 0.09% | viability, T/C [50] 0.15%
< 31.6 nM: IC50 (second compound 0.1 µM) | IC50 (second compound 0.316 µM) | IC50 (second compound 1 µM) | IC50 (second compound 3.16 µM) | IC50 (second compound 10 µM)
inactive: viability, T/C [5] 27.9% | viability, T/C [26] 24.7% | viability, T/C [31] 28.1% | viability, T/C [32] 25.4% | viability, T/C [33] 22.3% | viability, T/C [34] 16.5% | viability, T/C [10] 25.8% | viability, T/C [27] 22% | viability, T/C [35] 25.9% | viability, T/C [36] 23.9% | viability, T/C [37] 21.1% | viability, T/C [38] 14.9% | viability, T/C [15] 20.6% | viability, T/C [28] 19.1% | viability, T/C [39] 23.1% | viability, T/C [40] 19.4% | viability, T/C [41] 17.6% | viability, T/C [42] 13.4%

COc1cc2nccc(Oc3ccc(NC(=O)C4(C(=O)Nc5ccc(F)cc5)CC4)cc3)c2cc1OC + CNCc1ccccc1-c1csc(C(C)Nc2nc(C)nc3cc(OC)c(OC)cc23)c1
< 31.6 nM: IC50 (second compound 3.16 µM) | IC50 (second compound 10 µM)
401 nM: IC50 (second compound 1 µM)
active: viability, T/C [42] 3.12% | viability, T/C [20] 0.1% | viability, T/C [29] 0.09% | viability, T/C [43] 0.13% | viability, T/C [44] 0.06% | viability, T/C [45] 0.05% | viability, T/C [46] 0.1% | viability, T/C [25] 0.08% | viability, T/C [30] 0.13% | viability, T/C [47] 0.21% | viability, T/C [48] 0.08% | viability, T/C [49] 0.42% | viability, T/C [50] 0.25%
1050 nM: IC50 (second compound 0.316 µM)
1270 nM: IC50 (second compound 0.1 µM)
inactive: viability, T/C [5] 89.2% | viability, T/C [26] 94.5% | viability, T/C [31] 82.5% | viability, T/C [32] 57.1% | viability, T/C [33] 25.1% | viability, T/C [34] 18.1% | viability, T/C [10] 89.4% | viability, T/C [27] 90.8% | viability, T/C [35] 73.4% | viability, T/C [36] 55.3% | viability, T/C [37] 19.8% | viability, T/C [38] 17% | viability, T/C [15] 69.1% | viability, T/C [28] 65.5% | viability, T/C [39] 50.1% | viability, T/C [40] 40.2% | viability, T/C [41] 15.1%

— PubChem BioAssay AID1963870 (Molecular Pharmacology Branch, DTP, NCI, 2024)
